Read-outs that look alike come from different tables or passages of the source.
Details: for AUC0–t, geometric LSM value, + rezafungin / AUC0–∞, geometric LSM value, + rezafungin / Cmax, geometric LSM value, + rezafungin / AUC0–t, geometric LSM value, alone / AUC0–∞, geometric LSM value, alone / Cmax, geometric LSM value, alone: Study 1, healthy subjects, plasma, LC-MS/MS, NCA; for Change in exposure of the oral probe drug on coadministration of i.v. rezafungin vs dosing alone: 90% CIs of GMRs of Cmax, AUC0–t, AUC0–∞ within 80 to […]; for Observation, Cmax (change with rezafungin relative to drug alone) / Observation, AUC (change with rezafungin relative to drug alone): class symbol; for Observation, AUC (change with rezafungin relative to drug alone): AUC0–t and AUC0–∞ unless otherwise noted; for AUC0–t, geometric mean ratio (drug + rezafungin / drug alone) / AUC0–∞, geometric mean ratio (drug + rezafungin / drug alone) / Cmax, geometric mean ratio (drug + rezafungin / drug alone): geometric LSM ratio x 100, ANOVA
Procedure: Both were phase 1, single-center, open-label, crossover inpatient studies that were conducted in the United States in healthy adults (study 1, aged 26 to 55 years; study 2, aged 21 to 59 years). The studies were compliant with the International Council for Harmonisation of Technical Requirements for Pharmaceuticals for Human Use E6 guideline for good clinical practice ([54]) and the Declaration of Helsinki. The study protocols were approved by the institutional review board associated with the study site, and all subjects provided written informed consent.
After screening, subjects were admitted to the clinical research unit (CRU) prior to the first dose of rezafungin (from day −22) and were discharged from the CRU on day 22. Nine oral substrate drugs were administered as part of a cocktail containing two or more drugs once before and once after receiving rezafungin on a schedule designed to allow the washout of the drugs in the cocktail between doses and limit interactions with other drugs (Fig. 4A). […] A loading dose of rezafungin for injection (600 mg) was administered over 1 h on day 1, followed by two once-weekly 400-mg doses over 1 h on days 10 and 15. Due to a short delay in the availability of the investigation study drug, the second once-weekly dose of rezafungin and the second set of oral substrate drugs were administered on day 10 instead of day 8, although the time between doses remained sufficient for all originally planned PK samplings through 96 h postdose and for the adequate washout of the substrate drugs. The total duration of treatment was up to 89 days, including 45 days of screening and 44 days of treatment in the CRU.
In study 1, predose PK blood samples were collected on each dosing day ≤60 min prior to the administration of the substrate drugs with or without rezafungin. Multiple blood samples were collected relative to each dose, with collection times ranging from 15 min to 168 h postdose, depending on the PK profile of each probe substrate drug (Table S5). For study 2, multiple blood samples were collected, and the timing of collection varied according to the PK profile of each coadministered drug from predose to 96 h postdose (Table S6). PK blood samples were collected for rezafungin at sample times ranging from predose to 168 h postdose.
For both studies, validated liquid chromatography-tandem mass spectrometry (LC-MS/MS) methods were used for PK assessments to analyze the concentrations of rezafungin and coadministered drugs. All plasma concentrations and actual blood sampling times were subjected to noncompartmental PK analysis. PK parameter calculations were performed using noncompartmental analysis (NCA) (Phoenix WinNonlin version 8.0 or higher). The PK parameters analyzed included Cmax; the time to reach the maximum observed plasma concentration (Tmax); AUC0–t (using the log-linear trapezoidal rule, where t was the last time point with a measurable concentration); AUC0–∞ (calculated as AUC0–t + Clast/λz); the AUC from 0 to 168 h (AUC0–168); the percentage of AUC0–∞ extrapolated (AUC%Extrap); the terminal elimination rate constant, determined by linear regression of the terminal linear segment of the log concentration-versus-time curve (λz); and the elimination half-life (t1/2), calculated as ln(2)/λz.
The primary analysis of the drug interaction effect on substrate drugs following rezafungin administration was assessed by the ratio of the geometric least-squares (LS) mean of each substrate drug administered with rezafungin to that without rezafungin. […] PK parameters were statistically analyzed using an analysis of variance (ANOVA) model. […] However, noncompliance with these no-effect boundaries was not considered evidence of a significant DDI. Statistical analyses were performed using SAS (version 9.4) and the mixed procedure. Adverse events were descriptively summarized.

[1] = oral metformin 500 mg, pitavastatin 2 mg (day 10) or caffeine 100 mg, efavirenz 50 mg, midazolam 2 mg, digoxin 0.25 mg (day 15) with i.v. rezafungin 400 mg
[2] = oral repaglinide 1 mg, metformin 500 mg, pitavastatin 2 mg, caffeine 100 mg, efavirenz 50 mg, midazolam 2 mg or digoxin 0.25 mg without rezafungin
[3] = Study 1, rezafungin 400 mg i.v. (day 10 or 15)
[4] = oral tacrolimus 5 mg or rosuvastatin 5 mg without rezafungin
[5] = oral tacrolimus 5 mg with i.v. rezafungin 600 mg (day 1)
[6] = Study 1, rezafungin 600 mg i.v.
[7] = oral repaglinide 1 mg with i.v. rezafungin 600 mg (day 1)

Compound | AUC0–t, geometric LSM value, + rezafungin [1] | AUC0–∞, geometric LSM value, + rezafungin [1] | Cmax, geometric LSM value, + rezafungin [1] | AUC0–t, geometric LSM value, alone [2] | AUC0–∞, geometric LSM value, alone [2] | Cmax, geometric LSM value, alone [2] | Change in exposure of the oral probe drug on coadministration of i.v. rezafungin vs dosing alone (Study 1) | Observation, Cmax (change with rezafungin relative to drug alone) (Study 1) | Observation, AUC (change with rezafungin relative to drug alone) (Study 1) | AUC0–t, geometric mean ratio (drug + rezafungin / drug alone) [3] | AUC0–∞, geometric mean ratio (drug + rezafungin / drug alone) [3] | Cmax, geometric mean ratio (drug + rezafungin / drug alone) [3] | also measured
O=C(O)C[C@H](O)C[C@H](O)/C=C/c1c(C2CC2)nc2ccccc2c1-c1ccc(F)cc1 [Pitavastatin] | 81.54 ng·h/mL | 90.87 ng·h/mL | 35.72 ng/mL | 77.44 ng·h/mL | 85.78 ng·h/mL | 36.23 ng/mL | did not result in statistically significant changes | ↔ (no change (the ratio of the PK parameter value varied by up to ~10%, and the 90% CI was within 80 to 125%)) | ↔ (no change (the ratio of the PK parameter value varied by up to ~10%, and the 90% CI was within 80 to 125%)) | 105.30% | 105.93% | 98.59% | –
Cc1ncc2n1-c1ccc(Cl)cc1C(c1ccccc1F)=NC2 [Midazolam] | 21.62 ng·h/mL | 23.67 ng·h/mL | 8.70 ng/mL | 21.39 ng·h/mL | 23.25 ng·h/mL | 9.00 ng/mL | did not result in statistically significant changes | ↔ (no change (the ratio of the PK parameter value varied by up to ~10%, and the 90% CI was within 80 to 125%)) | ↔ (no change (the ratio of the PK parameter value varied by up to ~10%, and the 90% CI was within 80 to 125%)) | 101.06% | 101.78% | 96.73% | –
Cn1c(=O)c2c(ncn2C)n(C)c1=O [Caffeine] | 18,475.36 ng · h/mL | 20,853.11 ng · h/mL | 2,232.88 ng/mL | 17,230.22 ng · h/mL | 18,897.70 ng · h/mL | 2,075.44 ng/mL | did not result in statistically significant changes | ↔ (no change (the ratio of the PK parameter value varied by up to ~10%, and the 90% CI was within 80 to 125%)) | ↔ (no change (the ratio of the PK parameter value varied by up to ~10%, and the 90% CI was within 80 to 125%)) | 107.23% | 110.35% | 107.59% | –
C=CC[C@@H]1/C=C(\C)C[C@H](C)C[C@H](OC)[C@H]2O[C@@](O)(C(=O)C(=O)N3CCCC[C@H]3C(=O)O[C@H](/C(C)=C/[C@@H]3CC[C@@H](O)[C@H](OC)C3)[C@H](C)[C@@H](O)CC1=O)[C@H](C)C[C@@H]2OC [Tacrolimus] | – | – | – | – | – | – | – | ↔ (no change (the ratio of the PK parameter value varied by up to ~10%, and the 90% CI was within 80 to 125%)) | – | – | – | – | AUC0–t, geometric LSM value, alone [4]: 309,698.20 pg · h/mL; AUC0–∞, geometric LSM value, alone [4]: 328,990.49 pg · h/mL; Cmax, geometric LSM value, alone [4]: 30,489.62 pg/mL; AUC0–t, geometric LSM value, + rezafungin [5]: 266,002.13 pg · h/mL; AUC0–∞, geometric LSM value, + rezafungin [5]: 283,328.47 pg · h/mL; Cmax, geometric LSM value, + rezafungin [5]: 28,909.40 pg/mL; Magnitude of decrease in AUC with rezafungin vs drug alone (Study 1, AUC0–t and AUC0–∞, from geometric mean ratio): ~14%; AUC0–t, geometric mean ratio (drug + rezafungin / drug alone) [6]: 85.89%; AUC0–∞, geometric mean ratio (drug + rezafungin / drug alone) [6]: 86.12%; Cmax, geometric mean ratio (drug + rezafungin / drug alone) [6]: 94.82%
CN(C)C(=N)N=C(N)N [Metformin] | 7,257.55 ng · h/mL | 7,373.31 ng · h/mL | 1,115.98 ng/mL | 7,333.63 ng · h/mL | 7,446.67 ng · h/mL | 1,074.27 ng/mL | did not result in statistically significant changes | ↔ (no change (the ratio of the PK parameter value varied by up to ~10%, and the 90% CI was within 80 to 125%)) | ↔ (no change (the ratio of the PK parameter value varied by up to ~10%, and the 90% CI was within 80 to 125%)) | 98.96% | 99.02% | 103.88% | –
C[C@H]1O[C@@H](O[C@H]2[C@@H](O)C[C@H](O[C@H]3[C@@H](O)C[C@H](O[C@H]4CC[C@@]5(C)[C@H](CC[C@@H]6[C@@H]5C[C@@H](O)[C@]5(C)[C@@H](C7=CC(=O)OC7)CC[C@]65O)C4)O[C@@H]3C)O[C@@H]2C)C[C@H](O)[C@@H]1O [Digoxin] | – | – | – | – | – | – | did not result in statistically significant changes | – | – | – | – | – | –
CCOc1cc(CC(=O)N[C@@H](CC(C)C)c2ccccc2N2CCCCC2)ccc1C(=O)O [Repaglinide] | – | – | – | 20.25 ng·h/mL | 21.74 ng·h/mL | 11.86 ng/mL | – | ↔ (no change (the ratio of the PK parameter value varied by up to ~10%, and the 90% CI was within 80 to 125%)) | – | – | – | – | AUC0–t, geometric LSM value, + rezafungin [7]: 23.47 ng·h/mL; AUC0–∞, geometric LSM value, + rezafungin [7]: 25.16 ng·h/mL; Cmax, geometric LSM value, + rezafungin [7]: 12.13 ng/mL; Magnitude of increase in AUC0–∞ with rezafungin vs drug alone (Study 1, from geometric mean ratio): ~16%; AUC0–t, geometric mean ratio (drug + rezafungin / drug alone) [6]: 115.87%; AUC0–∞, geometric mean ratio (drug + rezafungin / drug alone) [6]: 115.75%; Cmax, geometric mean ratio (drug + rezafungin / drug alone) [6]: 102.26%
O=C1Nc2ccc(Cl)cc2[C@@](C#CC2CC2)(C(F)(F)F)O1 [Efavirenz] | 7,698.46 ng · h/mL | 16,156.14 ng · h/mL | 300.17 ng/mL | 7,557.26 ng · h/mL | 14,368.15 ng · h/mL | 299.30 ng/mL | did not result in statistically significant changes | ↔ (no change (the ratio of the PK parameter value varied by up to ~10%, and the 90% CI was within 80 to 125%)) | ↔ (no change (the ratio of the PK parameter value varied by up to ~10%, and the 90% CI was within 80 to 125%)) | 101.87% | 112.44% | 100.29% | –
